According to patent US12378248B2 (The United States of America, as represented by the …, priority 2018, dated 2025):
Like-named read-outs stand apart in the source and are kept apart here.

Tests used:
wild-type C57BL/6J mice [1] = test: Locomotor activity by telemetry after ip dosing; format: in vivo, mouse; settings: average from dosing to 60 min, mean±SD
Procedure: (§1) Compounds were dosed ip. Tb and activity were measured by telemetry and the averages from dosing to 60 min were calculated. […] Data are for the highest dose used and are mean±SD from 3 to 22 mice/group (usually 5-7). P values are unpaired t-Test vs vehicle-treated controls assayed simultaneously. Vehicle data are mean±SD from all (n=83) vehicle treated mice.

wild-type C57BL/6J mice [2] = test: Hypothermia (Tb by telemetry) after ip dosing; format: in vivo, mouse; settings: average from dosing to 60 min, mean±SD
Procedure: as §1

mA3AR = target: T1, mA3AR (Mus musculus, UniProt Q61618); test: Adenosine receptor binding, mA3AR; settings: (m); Ki; read-out: A3AR % inhibition or Ki (converted)
T1 sequence (Q61618 1-319): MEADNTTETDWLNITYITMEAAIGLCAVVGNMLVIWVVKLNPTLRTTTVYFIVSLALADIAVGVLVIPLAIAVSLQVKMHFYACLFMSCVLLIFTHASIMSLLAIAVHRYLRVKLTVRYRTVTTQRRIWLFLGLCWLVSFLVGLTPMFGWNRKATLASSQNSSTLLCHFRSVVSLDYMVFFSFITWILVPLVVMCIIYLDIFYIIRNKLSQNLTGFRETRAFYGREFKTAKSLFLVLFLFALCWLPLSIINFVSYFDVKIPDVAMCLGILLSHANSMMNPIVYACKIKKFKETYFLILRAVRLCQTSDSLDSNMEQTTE

mA1AR = target: T2, mA1AR (Mus musculus, UniProt Q60612); test: Adenosine receptor binding, mA1AR
T2 sequence (Q60612 1-326): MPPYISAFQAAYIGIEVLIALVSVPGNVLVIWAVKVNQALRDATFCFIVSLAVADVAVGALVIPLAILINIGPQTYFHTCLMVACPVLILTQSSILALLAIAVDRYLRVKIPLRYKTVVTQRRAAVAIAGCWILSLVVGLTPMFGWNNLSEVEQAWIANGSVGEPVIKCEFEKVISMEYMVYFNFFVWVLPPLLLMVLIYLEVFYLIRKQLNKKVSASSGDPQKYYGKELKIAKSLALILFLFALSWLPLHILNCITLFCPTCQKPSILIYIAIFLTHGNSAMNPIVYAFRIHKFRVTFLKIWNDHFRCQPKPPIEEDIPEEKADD

hA2AAR = target: T3, hA2AAR (Homo sapiens, UniProt P29274); test: Radioligand binding in membranes of HEK293 cells expressing hA2AAR; settings: read-out: A2AAR % inhibition; for Ki: (h), values without % sign (Ki)
T3 construct: expressed in transfected cells; host or cells: HEK293
T3 sequence (P29274 whole entry): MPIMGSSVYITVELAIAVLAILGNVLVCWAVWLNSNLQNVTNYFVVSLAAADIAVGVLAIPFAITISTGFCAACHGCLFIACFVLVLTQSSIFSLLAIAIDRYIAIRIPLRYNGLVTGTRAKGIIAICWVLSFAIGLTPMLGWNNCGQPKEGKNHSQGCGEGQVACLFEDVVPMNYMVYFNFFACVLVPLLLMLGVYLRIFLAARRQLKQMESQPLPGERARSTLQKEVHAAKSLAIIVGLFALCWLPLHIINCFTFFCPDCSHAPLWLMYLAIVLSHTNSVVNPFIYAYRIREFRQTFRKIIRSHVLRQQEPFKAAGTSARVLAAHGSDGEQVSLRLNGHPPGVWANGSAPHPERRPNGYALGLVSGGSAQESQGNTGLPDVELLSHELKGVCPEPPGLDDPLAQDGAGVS

hA3AR = target: T4, hA3AR (Homo sapiens, UniProt P0DMS8); test: Radioligand binding in membranes of CHO cells expressing hA3AR; settings: read-out: A3AR % inhibition or Ki; for Ki: (h)
T4 construct: expressed in transfected cells; host or cells: CHO
T4 sequence (P0DMS8 1-318): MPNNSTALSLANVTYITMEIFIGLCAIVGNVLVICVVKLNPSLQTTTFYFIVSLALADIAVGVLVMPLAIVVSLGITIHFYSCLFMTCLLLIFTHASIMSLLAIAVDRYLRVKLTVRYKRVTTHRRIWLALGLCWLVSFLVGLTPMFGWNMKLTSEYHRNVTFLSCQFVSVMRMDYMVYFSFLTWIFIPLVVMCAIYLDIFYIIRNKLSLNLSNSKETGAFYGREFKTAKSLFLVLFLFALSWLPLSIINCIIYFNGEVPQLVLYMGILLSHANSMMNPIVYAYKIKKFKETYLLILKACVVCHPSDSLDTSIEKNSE

serotonin receptor 5HT2B = serotonin receptor 5HT2B (Homo sapiens, UniProt P41595); test: Off-target interaction determined by the PDSP; format: binding; settings: read-out: Off-target, receptor (h, unless noted) (Ki, μM): 5HT2B
serotonin receptor 5HT2B, sequence (P41595 whole entry): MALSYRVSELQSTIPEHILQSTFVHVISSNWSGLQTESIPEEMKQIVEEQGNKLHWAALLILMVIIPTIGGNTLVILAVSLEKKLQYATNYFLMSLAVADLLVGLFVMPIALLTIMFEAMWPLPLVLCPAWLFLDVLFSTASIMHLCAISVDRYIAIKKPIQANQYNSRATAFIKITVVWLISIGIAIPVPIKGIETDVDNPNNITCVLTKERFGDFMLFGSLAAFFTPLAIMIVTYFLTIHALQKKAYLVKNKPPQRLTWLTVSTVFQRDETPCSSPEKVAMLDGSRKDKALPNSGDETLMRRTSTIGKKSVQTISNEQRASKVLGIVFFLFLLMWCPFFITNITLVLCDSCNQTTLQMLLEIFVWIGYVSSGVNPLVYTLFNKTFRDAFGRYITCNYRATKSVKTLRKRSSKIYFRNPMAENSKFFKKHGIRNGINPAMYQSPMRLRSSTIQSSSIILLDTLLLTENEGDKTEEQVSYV

hA1AR = target: T5, hA1AR (Homo sapiens, UniProt P30542); test: Radioligand binding in membranes of CHO cells expressing hA1AR, [3H]N6-R-phenylisopropyladenosine; settings: read-out: A1AR % inhibition or Ki; for Ki: (h)
T5 construct: expressed in transfected cells; host or cells: CHO
T5 sequence (P30542 1-326): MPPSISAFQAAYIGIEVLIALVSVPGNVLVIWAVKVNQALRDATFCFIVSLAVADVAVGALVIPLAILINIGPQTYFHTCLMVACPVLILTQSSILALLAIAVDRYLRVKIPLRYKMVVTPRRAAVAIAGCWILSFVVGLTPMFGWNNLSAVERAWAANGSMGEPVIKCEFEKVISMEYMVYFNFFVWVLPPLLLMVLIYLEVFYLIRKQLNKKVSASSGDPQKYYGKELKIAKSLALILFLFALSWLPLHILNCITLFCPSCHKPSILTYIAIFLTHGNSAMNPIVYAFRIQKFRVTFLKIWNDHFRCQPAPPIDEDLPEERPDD

sigma receptor σ1 = sigma receptor σ1 (Homo sapiens, UniProt Q99720); test: Off-target interaction determined by the PDSP; format: binding; settings: read-out: Off-target, receptor (h, unless noted) (Ki, μM): σ1
sigma receptor σ1, sequence (Q99720 whole entry): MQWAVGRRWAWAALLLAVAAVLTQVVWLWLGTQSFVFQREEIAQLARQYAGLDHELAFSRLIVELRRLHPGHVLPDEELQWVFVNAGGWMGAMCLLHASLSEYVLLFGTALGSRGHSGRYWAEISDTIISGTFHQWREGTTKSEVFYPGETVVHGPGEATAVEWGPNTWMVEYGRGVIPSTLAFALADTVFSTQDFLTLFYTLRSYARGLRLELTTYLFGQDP

sigma receptor σ2 = sigma receptor σ2 (UniProt Q5BJF2); test: Off-target interaction determined by the PDSP; format: binding, human; settings: read-out: Off-target, receptor (h, unless noted) (Ki, μM): σ2
[3] = target: TSPO (translocator protein) (UniProt P30536); test: Off-target interaction determined by the PDSP; format: binding, human; settings: for Ki: read-out: Off-target, receptor (h, unless noted) (Ki, μM): TSPO
serotonin receptor 5HT2C = target: T6, serotonin receptor 5HT2C (Homo sapiens, UniProt P28335); test: Off-target interaction determined by the PDSP; format: binding; settings: read-out: Off-target, receptor (h, unless noted) (Ki, μM): 5HT2C
T6 sequence (P28335 33-458): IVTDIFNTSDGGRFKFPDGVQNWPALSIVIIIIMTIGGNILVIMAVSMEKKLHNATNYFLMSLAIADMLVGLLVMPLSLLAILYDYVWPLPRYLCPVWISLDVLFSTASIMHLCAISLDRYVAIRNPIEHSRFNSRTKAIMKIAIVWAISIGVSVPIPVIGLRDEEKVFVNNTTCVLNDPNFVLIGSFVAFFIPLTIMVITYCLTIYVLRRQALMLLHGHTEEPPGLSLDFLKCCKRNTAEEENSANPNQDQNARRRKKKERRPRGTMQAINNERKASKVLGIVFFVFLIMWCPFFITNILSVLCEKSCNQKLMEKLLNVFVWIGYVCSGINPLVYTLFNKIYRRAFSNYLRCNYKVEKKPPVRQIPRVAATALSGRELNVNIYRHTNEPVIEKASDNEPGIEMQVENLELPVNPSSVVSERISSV

[4] = tested on: off-target receptors (PDSP); test: Off-target interactions determined by the PDSP, whole screen; format: binding, human; settings: no off-target interaction listed
mA2AAR = mA2AAR (Mus musculus, UniProt Q60613); test: Adenosine receptor binding, mA2AAR; settings: read-out: A2AAR % inhibition (converted)
mA2AAR, sequence (Q60613 whole entry): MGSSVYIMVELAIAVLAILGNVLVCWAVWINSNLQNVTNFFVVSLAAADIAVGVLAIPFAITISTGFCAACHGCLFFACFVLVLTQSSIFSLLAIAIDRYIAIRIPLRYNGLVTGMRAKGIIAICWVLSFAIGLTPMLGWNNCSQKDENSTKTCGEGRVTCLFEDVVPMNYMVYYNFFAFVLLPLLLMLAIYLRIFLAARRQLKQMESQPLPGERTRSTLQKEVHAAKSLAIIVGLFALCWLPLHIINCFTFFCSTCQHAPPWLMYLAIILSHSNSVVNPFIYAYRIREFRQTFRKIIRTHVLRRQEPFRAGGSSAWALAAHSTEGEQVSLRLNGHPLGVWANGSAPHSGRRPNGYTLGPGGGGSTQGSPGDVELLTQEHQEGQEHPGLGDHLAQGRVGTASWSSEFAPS

[5] = (m), Ki, read-out: A1AR % inhibition or Ki (converted)

Row | Compound | Ki (hA2AAR) [nM] | Ki (hA3AR) [nM] | Ki (hA1AR) [nM] | inhibition at 10 µM (hA2AAR) [%] | Ki (mA3AR) [nM] | Ki (mA1AR; [5]) [nM] | further results
1 | O[C@@H]1[C@H](O)[C@@H](CCl)O[C@H]1n1cnc2c(NC3CC4CCC3C4)ncnc21 (some centres unmarked) [Compound 4, reference compound] |  |  |  |  | 2410 | 0.2 | Activity (counts) (wild-type C57BL/6J mice [1]; 3 mg/kg ip): 2.8 ± 1.6 counts; Tb (° C.) (wild-type C57BL/6J mice [2]; 3 mg/kg ip): 32.2 ± 1.3 °C
2 | O[C@@H]1[C@H](O)[C@@H]2C[C@@H]2[C@H]1n1cnc2c(NC(C3CC3)C3CC3)nc(Cl)nc21 [Compound 7, reference compound] |  |  |  |  |  |  | Activity (counts) (wild-type C57BL/6J mice [1]; 3 mg/kg ip): 5.5 ± 4.1 counts; Tb (° C.) (wild-type C57BL/6J mice [2]; 3 mg/kg ip): 33.4 ± 1.7 °C
3 | O[C@@H]1[C@H](O)[C@@H](CCl)O[C@H]1n1cnc2c(NC(C3CCC3)C3CCC3)ncnc21 [Compound 10, (2S,3S,4R,5R)-2-(Chloromethyl)-5-(6-((dicyclobutylmethyl)amino)-9H-purin-9-yl)tetrahydrofuran-3,4-diol] | 5200 | 16600 | 4.9 ± 0.87 |  | 2110 | 0.71 | Ki (sigma receptor σ2): 0.662 µM; Ki [3]: 3.98 µM; Activity (counts) (wild-type C57BL/6J mice [1]; 10 mg/kg ip): 20.5 ± 4.6 counts; Tb (° C.) (wild-type C57BL/6J mice [2]; 10 mg/kg ip): 35.8 ± 0.1 °C; Ki (sigma receptor σ1): 0.69 µM
4 | CCSC[C@H]1O[C@@H](n2cnc3c(NC(C4CCC4)C4CCC4)ncnc32)[C@H](O)[C@@H]1O [Compound 11, (2R,3R,4S,5S)-2-(6-((Dicyclobutylmethyl)amino)-9H-purin-9-yl)-5-((ethylthio)methyl)tetrahydrofuran-3,4-diol] |  | 6220 ± 1480 | 63.4 ± 12.1 | 30 ± 5 | 718 | 3.58 | Ki (sigma receptor σ2): 0.642 µM; Off-target: TSPO (% inhib.) ([3]; footnote j not given): 90%; Ki (sigma receptor σ1): 0.626 µM
5 | OC[C@H]1O[C@@H](n2cnc3c(NC(C4CCC4)C4CCC4)nc(Cl)nc32)[C@H](O)[C@@H]1O [Compound 12, (2R,3R,4R,5R)-2-(2-Chloro-6-((dicyclobutylmethyl)amino)-9H-purin-9-yl)-5-(hydroxymethyl)tetrahydrofuran-3,4-diol] | 2550 ± 540 | 13200 | 17.8 ± 8.7 |  | 653 |  | Ki (mA1AR; Table 7, repeats the binding tables, read-out: Binding Ki for mA1AR): 0.65 nM; Ki (serotonin receptor 5HT2C): 1.45 µM
6 | CCNC(=O)[C@H]1O[C@@H](n2cnc3c(N)ncnc32)[C@H](O)[C@@H]1O [Compound 16, reference compound] |  |  |  |  |  |  | Off-target, receptor (h, unless noted) [4]: none
7 | Nc1ncnc2c1ncn2[C@@H]1O[C@H](C(=O)NCCO)[C@@H](O)[C@H]1O [Compound 18, reference compound] | 505 ± 30 | 9450 | 12.8 |  |  |  | 
8 | O[C@@H]1[C@H](O)[C@@H]2C[C@@H]2[C@H]1n1cnc2c(NC(C3CCC3)C3CCC3)nc(Cl)nc21 [Compound 19] |  |  |  | 46 ± 6 |  |  | Ki [3]: 2.38 µM
9 | Nc1nc(Cl)nc2c1ncn2[C@H]1[C@H](O)[C@H](O)[C@]2(CCl)C[C@H]12 [Compound 22] | 1750 ± 290 | 253 ± 148 | 7.61 ± 0.73 |  |  |  | Ki (sigma receptor σ2): 2.55 µM; Ki (sigma receptor σ1): 1.97 µM
10 | O[C@H]1[C@H](n2cnc3c(NC(C4CCC4)C4CCC4)nc(Cl)nc32)[C@H]2C[C@@]2(CSc2ccccc2F)[C@H]1O [Compound 28, (1S,2R,3S,4R,5S)-4-(2-Chloro-6-((dicyclobutylmethyl)amino)-9H-purin-9-yl)-1-(((2-fluorophenyl)thio)methyl)bicyclo[3.1.0]hexane-2,3-diol] |  | 9750 ± 4030 |  | 22 ± 5 | 7440 | 2490 | Ki (sigma receptor σ2): 0.583 µM; inhibition at 10 µM (mA2AAR): 20%; Ki (serotonin receptor 5HT2B): 0.334 µM; inhibition at 10 µM (hA1AR): 45 ± 4%; Ki (serotonin receptor 5HT2C): 1.46 µM
11 | CCOC(=O)[C@@]12C[C@@H]1[C@@H](n1cnc3c(NC(C4CC4)C4CC4)nc(Cl)nc31)[C@H](O)[C@@H]2O [Compound 32] |  | 236 ± 41 | 360 ± 74 |  |  |  | Ki (serotonin receptor 5HT2B): 0.015 µM; Ki (serotonin receptor 5HT2C): 0.054 µM

The next lines start with results.

Row | Ki (hA2AAR) [nM] | Ki (hA3AR) [nM] | Ki (hA1AR) [nM] | inhibition at 10 µM (hA2AAR) [%] | Compound | Ki (mA3AR) [nM] | Ki (mA1AR; [5]) [nM] | further results
12 | 3250 ± 300 | 3.7 ± 0.9 | 18.3 ± 6.3 |  | CNC(=O)[C@@]12C[C@@H]1[C@@H](n1cnc3c(NC4CCCC4)nc(Cl)nc31)[C@H](O)[C@@H]2O [Compound 6e, reference compound] | 3.46 ± 0.13 | 0.68 | Ki (serotonin receptor 5HT2B): 0.012 µM; Ki (sigma receptor σ1): 1.55 µM
13 |  |  |  | 11 ± 4 | Nc1ncnc2c1ncn2[C@@H]1O[C@H](C(=O)O)[C@@H](O)[C@H]1O [Compound 14] |  |  | inhibition at 10 µM (hA3AR): 32%; Ki (sigma receptor σ2): 0.796 µM; inhibition at 10 µM (hA1AR): 24 ± 4%; Ki (sigma receptor σ1): 1.48 µM
14 |  |  |  | 15 ± 2 | CCOC(=O)[C@@]12C[C@@H]1[C@@H](n1cnc3c(NC(C4CC4)C4CC4)nc(Cl)nc31)[C@@H]1OC(C)(C)O[C@@H]12 [Compound 33] |  |  | inhibition at 10 µM (hA3AR): 41 ± 6%; inhibition at 10 µM (hA1AR): 49 ± 9%
15 | 4320 ± 1870 | 34 ± 11 | 110 ± 14 |  | CNC(=O)[C@@]12C[C@@H]1[C@@H](n1cnc3c(NC(C4CC4)C4CC4)nc(Cl)nc31)[C@H](O)[C@@H]2O [Compound 34] |  |  | Ki (serotonin receptor 5HT2B): 0.023 µM; Ki (serotonin receptor 5HT2C): 0.749 µM
16 | 520 ± 119 | 59 ± 17.8 | 1.22 ± 0.05 |  | O=C(NC1CC1)[C@@]12C[C@@H]1[C@@H](n1cnc3c(N[C@H]4C[C@H]5CC[C@@H]4C5)nc(Cl)nc31)[C@H](O)[C@@H]2O [Compound 36, (1S,2R,3S,4R,5S)-4-(6-(((1R,2S,4S)-bicyclo[2.2.1]heptan-2-yl)amino)-2-chloro-9H-purin-9-yl)-N-cyclopropyl-2,3-dihydroxybicyclo[3.1.0]hexane-1-carboxamide] | 29.5 | 0.45 | Ki (mA2AAR; (m), values without % sign (Ki)): 2650 nM; Ki (serotonin receptor 5HT2B): 1.57 µM
17 |  |  |  | 23 ± 6 | NC(=O)c1ncn([C@@H]2O[C@H](CO)[C@@H](O)[C@H]2O)n1 [Compound 38, ribavirin, reference compound] |  |  | inhibition at 10 µM (hA3AR): 16 ± 5%
